Assay results published in ChEMBL document CHEMBL3351405, “Novel tricyclic pyrazolopyrimidines as potent and selective GPR119 agonists” (Bioorg Med Chem Lett, 2014).
Values after ≈ are worked out from the molar mass of the structure shown.

How the values were obtained:
[1] = biological target: T1, Glucose-dependent insulinotropic receptor (Mus musculus) (UniProt Q7TQP3); assay: Agonist activity at mouse GPR119 overexpressed in CHO cells assessed as increase in cellular cAMP production by HTRF method relative to AR231453; assay type: functional, cell-based
T1 sequence (whole entry): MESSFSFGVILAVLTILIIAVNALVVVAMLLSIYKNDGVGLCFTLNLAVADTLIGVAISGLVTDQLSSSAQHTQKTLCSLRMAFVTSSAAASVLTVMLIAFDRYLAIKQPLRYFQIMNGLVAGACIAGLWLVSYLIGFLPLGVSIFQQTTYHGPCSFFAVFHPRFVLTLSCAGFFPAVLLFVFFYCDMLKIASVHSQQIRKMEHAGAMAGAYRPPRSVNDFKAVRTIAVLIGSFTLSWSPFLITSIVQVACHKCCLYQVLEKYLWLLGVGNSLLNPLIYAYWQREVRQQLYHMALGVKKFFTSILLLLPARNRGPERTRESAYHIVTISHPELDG

[2] = biological target: T2, Glucose-dependent insulinotropic receptor (Mus musculus, UniProt Q7TQP3); assay: Agonist activity at mouse GPR119 overexpressed in CHO cells assessed as increase in cellular cAMP production by HTRF method; assay type: functional, cell-based
T2 sequence (Q7TQP3 whole entry): T1 sequence (whole entry)

[3] = biological target: T3, Glucose-dependent insulinotropic receptor (Homo sapiens) (UniProt Q8TDV5); assay: Agonist activity at human GPR119 overexpressed in CHO cells assessed as increase in cellular cAMP production by HTRF method relative to AR231453; assay type: functional, cell-based
T3 sequence (whole entry): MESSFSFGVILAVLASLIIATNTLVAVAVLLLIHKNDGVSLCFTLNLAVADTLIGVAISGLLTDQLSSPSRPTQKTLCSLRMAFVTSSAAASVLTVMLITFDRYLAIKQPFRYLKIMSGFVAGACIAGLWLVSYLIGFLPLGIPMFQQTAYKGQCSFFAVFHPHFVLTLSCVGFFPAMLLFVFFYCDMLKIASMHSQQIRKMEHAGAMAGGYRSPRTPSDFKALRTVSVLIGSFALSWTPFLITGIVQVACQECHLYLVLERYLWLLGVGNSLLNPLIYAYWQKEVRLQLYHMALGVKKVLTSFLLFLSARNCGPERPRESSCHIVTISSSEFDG

[4] = Clearance in human liver microsomes assessed as extraction ratio; assay type: ADME; settings: read-out: ERH
[5] = biological target: T4, Glucose-dependent insulinotropic receptor (Homo sapiens, UniProt Q8TDV5); assay: Agonist activity at human GPR119 overexpressed in CHO cells assessed as increase in cellular cAMP production by HTRF method; assay type: functional, cell-based
T4 sequence (Q8TDV5 whole entry): T3 sequence (whole entry)

Rattus norvegicus [6] = assay: Antidiabetic activity in ZDF fa/fa rat model assessed as reduction in glucose AUC at 3 mg/kg, po qd administered 1 hr prior to glucose bolus after 2 weeks by OGTT relative to vehicle-treated control; assay type: functional, Zucker; set-up: scale not given: the % may be the effect or the level left
[7] = Solubility of the compound at pH 6.8; assay type: physicochemical; settings: buffer
Rattus norvegicus [8] = assay: Antidiabetic activity in ZDF fa/fa rat model assessed as reduction in glucose AUC at 10 mg/kg, po qd administered 1 hr prior to glucose bolus after 2 weeks by OGTT relative to vehicle-treated control; assay type: functional, Zucker; set-up: scale not given: the % may be the effect or the level left
Mus musculus [9] = assay: Dose normalized AUC in po dosed Balb/C mouse; assay type: ADME, organism-based; settings: in vivo
Mus musculus [10] = assay: Increase in plasma GLP1 level in 16 hrs fasted wild-type C57BL/6J mouse at 10 mg/kg, po administered as single dose 30 mins prior to glucose excursion measured after 2 mins by ELISA relative to vehicle-treated control; assay type: functional
Rattus norvegicus [11] = assay: Antidiabetic activity in ZDF fa/fa rat model assessed as reduction in glucose AUC at 30 mg/kg, po qd administered 1 hr prior to glucose bolus after 2 weeks by OGTT relative to vehicle-treated control; assay type: functional, Zucker; set-up: scale not given: the % may be the effect or the level left
[12] = Clearance in rat liver microsomes assessed as extraction ratio; assay type: ADME; settings: read-out: ERH
[13] = Clearance in mouse liver microsomes assessed as extraction ratio; assay type: ADME; settings: read-out: ERH

| Efficacy [1] | EC50 [2] | Efficacy [3] | hepatic extraction ratio [4] | EC50 [5] | SMILES | also measured |
| --- | --- | --- | --- | --- | --- | --- |
| 78% | 11 nM | 73% | 0.79 | 3 nM | CCOC(=O)[C@@]1(Cc2ccccc2)CCc2cnc3c(-c4ccc(Cl)cc4)cnn3c21 |  |
| 76% | 15 nM | 83% | 0.88 | 11 nM | COC(=O)C1(Cc2ccccc2)COc2cnc3c(-c4ccc(C(F)(F)F)cc4)cnn3c21 (racemic) |  |
|  |  | 99% | 0.82 | 5 nM | COC(=O)[C@@]1(Cc2cccc(F)c2)NCc2cnc3c(-c4ccc(C(F)(F)F)cc4)c(CO)nn3c21 | Activity (Rattus norvegicus [6]): 1%; solubility [7]: 58 µM (≈ 29 µg/mL); Activity (Rattus norvegicus [8]): 11%; Efficacy ([3]; tested as the 2H-labelled form): 103%; AUC/dose (Mus musculus [9]): 7.65 µM·h; Activity (Mus musculus [10]): 29%; Activity (Rattus norvegicus [11]): 37% |
|  |  | 66% |  | 38 nM | CCOC(=O)[C@]1(Cc2ccccc2)CCc2cnc3c(-c4ccc(C(F)(F)F)cc4)cnn3c21 |  |
|  |  | 55% |  | 7 nM | COC(=O)C1(Cc2ccccc2)CCc2cnc3c(-c4ccc(C#N)cc4)cnn3c21 (racemic) |  |
|  |  | 74% | 0.92 | 20 nM | COC(=O)[C@@]1(Cc2cccc(F)c2)NCc2cnc3c(-c4ccc(C(F)(F)F)cc4)c(C(N)=O)nn3c21 | solubility [7]: 39 µM (≈ 20 µg/mL) |
| 72% | 24 nM | 83% |  | 23 nM | CCOC(=O)[C@](C)(Cc1ccccc1)c1ccnc2c(-c3ccc(C(F)(F)F)cc3)c(C)nn12 |  |
| 80% | 135 nM | 84% | 0.97 | 73 nM | COC(=O)[C@@]1(Cc2cccc(F)c2)N=Cc2cnc3c(-c4ccc(C(F)(F)F)cc4)cnn3c21 |  |
| 80% | 8 nM | 85% | 0.96 | 0.5 nM | CCOC(=O)[C@@]1(Cc2ccccc2)CCc2cnc3c(-c4ccc(C(F)(F)F)cc4)cnn3c21 | hepatic extraction ratio [12]: 0.6; hepatic extraction ratio [13]: 0.6; AUC/dose (Mus musculus [9]): 0.3 µM·h |
|  |  | 77% |  | 436 nM | CC1(Cc2cccc(F)c2)NCc2cnc3c(-c4ccc(C(F)(F)F)cc4)cnn3c21 (racemic) |  |
| 91% | 17 nM | 82% | 0.93 | 2 nM | COC(=O)C1(Cc2ccccc2)CCc2cnc3c(-c4ccc(C(F)(F)F)cc4)cnn3c21 (racemic) |  |
| 80% | 25 nM | 75% | 0.75 | 25 nM | CCOC(=O)[C@@]1(Cc2ccccc2)CNc2cnc3c(-c4ccc(C(F)(F)F)cc4)cnn3c21 |  |
|  |  | 82% | 0.93 | 6 nM | OCc1nn2c3c(cnc2c1-c1ccc(C(F)(F)F)nc1)CN[C@]3(Cc1cccc(F)c1)C1CC1 | solubility [7]: 36 µM (≈ 17.4 µg/mL) |
|  |  | 81% | 0.89 | 125 nM | COC(=O)C1(Cc2ccccc2)CCc2cnc3c(-c4ccc(S(C)(=O)=O)cc4)cnn3c21 (racemic) |  |
|  |  |  | 0.85 | 35 nM | [2H]C([2H])(O)c1nn2c3c(cnc2c1-c1ccc(C(F)(F)F)nc1)CN[C@]3(Cc1cccc(F)c1)C(=O)OC | solubility [7]: 83 µM (≈ 41.8 µg/mL); AUC/dose (Mus musculus [9]): 6.56 µM·h |
| 62% | 11 nM | 80% | 0.3 | 1 nM | CCOC(=O)[C@](C)(Cc1ccccc1)c1c(C)cnc2c(-c3ccc(C(F)(F)F)cc3)cnn12 | hepatic extraction ratio [12]: 0.3; hepatic extraction ratio [13]: 0.3; AUC/dose (Mus musculus [9]): 0.6 µM·h |
|  |  | 101% | 0.82 | 15 nM | COC(=O)[C@@]1(Cc2cccc(F)c2)NCc2cnc3c(-c4ccc(C(F)(F)F)nc4)c(CO)nn3c21 | solubility [7]: 99 µM (≈ 49.6 µg/mL); Efficacy ([3]; tested as the 2H-labelled form): 87% |

| Efficacy [1] | EC50 [2] | Efficacy [3] | hepatic extraction ratio [4] | EC50 [5] | SMILES | also measured |
| --- | --- | --- | --- | --- | --- | --- |
|  |  | 66% |  | 74 nM | COC(=O)C1(Cc2ccccc2)CCCCc2cnc3c(-c4ccc(C(F)(F)F)cc4)cnn3c21 (racemic) |  |
|  |  | 55% |  | 214 nM | CCOC(=O)C1(Cc2ccccc2)c2c(cnc3c(-c4ccc(C(F)(F)F)cc4)cnn23)CN1C (racemic) |  |
| 59% | 27 nM | 75% | 0.71 | 8 nM | CCOC(=O)[C@@]1(Cc2ccccc2)CCCc2cnc3c(-c4ccc(C(F)(F)F)cc4)cnn3c21 |  |
|  |  | 88% | 0.9 | 2 nM | OCc1nn2c3c(cnc2c1-c1ccc(C(F)(F)F)cc1)CN[C@]3(Cc1cccc(F)c1)C1CC1 | solubility [7]: 6 µM (≈ 2.89 µg/mL) |
|  |  | 90% | 0.9 | 2 nM | COCCN(C)C(=O)[C@@]1(Cc2cccc(F)c2)NCc2cnc3c(-c4ccc(C(F)(F)F)cc4)cnn3c21 | solubility [7]: < 5 µM; AUC/dose (Mus musculus [9]): 0.07 µM·h |
|  |  | 15% |  | > 10 nM | CCOC(=O)[C@](C)(Cc1ccccc1)c1cc(C)nc2c(-c3ccc(Cl)cc3)cnn12 |  |
|  |  | 87% | 0.6 | 21 nM | Fc1cccc(CC2(C3CC3)NCc3cnc4c(-c5ccc(C(F)(F)F)cc5)cnn4c32)c1 (racemic) |  |
| 73% | 8 nM | 75% |  | 3 nM | CCOC(=O)[C@](C)(Cc1ccccc1)c1c(Cl)cnc2c(-c3ccc(C(F)(F)F)cc3)cnn12 |  |
| 81% | 9 nM | 92% | 0.96 | 3 nM | COC(=O)[C@@]1(Cc2cccc(F)c2)CCc2cnc3c(-c4ccc(C(F)(F)F)cc4)cnn3c21 |  |
| 78% | 35 nM | 77% | 0.96 | 34 nM | COC(=O)C1(Cc2ccccc2)OCc2cnc3c(-c4ccc(C(F)(F)F)cc4)cnn3c21 (racemic) |  |
|  |  | 81% |  | 298 nM | CCOC(=O)C1(Cc2cccc(F)c2)NC(=O)c2cnc3c(-c4ccc(C(F)(F)F)cc4)cnn3c21 (racemic) |  |
|  |  | 56% |  | 101 nM | CCOC(=O)C1(Cc2ccccc2)CCCCCc2cnc3c(-c4ccc(C(F)(F)F)cc4)cnn3c21 (racemic) |  |
| 88% | 14 nM | 91% | 0.95 | 3 nM | COC(=O)[C@@]1(Cc2cccc(F)c2)NCc2cnc3c(-c4ccc(C(F)(F)F)cc4)cnn3c21 | AUC/dose (Mus musculus [9]): 0.31 µM·h |
|  |  | 60% |  | 20 nM | CCOC(=O)C1(Cc2ccccc2)CCc2cnc3c(-c4ccc(Oc5ccccc5)cc4)cnn3c21 (racemic) |  |
|  |  |  | 0.83 | 2 nM | [2H]C([2H])(O)c1nn2c3c(cnc2c1-c1ccc(C(F)(F)F)cc1)CN[C@]3(Cc1cccc(F)c1)C(=O)OC | solubility [7]: 26 µM (≈ 13.1 µg/mL); AUC/dose (Mus musculus [9]): 7.89 µM·h |
|  |  | 58% | 0.51 | 530 nM | COC(=O)[C@@]1(Cc2cccc(F)c2)NCc2cnc3c(-c4ccc(C(F)(F)F)cc4)c(C(C)(C)O)nn3c21 |  |
